# Laboratory results as given in PubChem BioAssay AID1341 (NMMLSC, 2008).
# “And” between values parts separate entries of the source, which are not always exact repeats. Equal values may be shown once.
# Target: GTPase HRas (Homo sapiens) (UniProt P01112)
# Test: blockade of GTP loading onto mutant Ras – biochemical, activated mutant, multiplex bead flow cytometry, dose response (AID 1341);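 further: GST-tagged constitutively activated Ras mutant immobilized on beads and multiplexed with other GTPases; potency for blocking fluorescent GTP binding to Ras so compounds act as competitors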
# Conditions: bead-based flow cytometry, Bodipy-FL-GTP binding
row,SMILES,EC50
1,N#Cc1c(-c2ccccc2)nc(SCC(=O)Nc2ccccc2)[nH]c1=O,1970 nM
2,COc1ccc(C(=O)c2c(O)cc(-c3ccc(OC)cc3)oc2=O)cc1,5960 nM
3,Cc1cc(NC(=O)CSc2nc(-c3ccccc3)c(C#N)c(=O)[nH]2)no1,11000 nM
4,CC1(C)Cc2c(sc(NC(=S)NC(=O)c3ccccc3)c2C(=O)O)CO1,144 nM and 145 nM
5,Cc1ccc(C)c(OCCn2cc(C(=O)O)c3ccccc32)c1,195 nM
6,CC(=O)c1c(C)[nH]c(C(=O)N2CCc3ccccc3C2)c1C,2460 nM
7,CC(C)Cc1csc(NC(=O)c2ccccc2Cl)c1C(=O)O,634 nM
8,Cc1cc(C(=O)O)sc1CNCc1ccccc1Cl,430 nM
